± gives the expanded uncertainty stated by the source.
Test: osmotic coefficient (dimensionless); mn = molality of the nth substance listed, in mol/kg
Details: 298.15 K, Liquid, isopiestic method

Q: For `CCCCn1cc[n+](C)c1.C[C@H](N)C(=O)[O-]` [3-butyl-1-methyl-1H-imidazolium L-alaninate] + O, which osmotic coefficient (m1 = 0) is on record?
A: Its osmotic coefficient is 1 ± 0.0004.

Q: And the osmotic coefficient (m1 = 0.0134)?
A: Its osmotic coefficient is 0.9617 ± 0.0015.

Q: What about the osmotic coefficient (m1 = 0.0183) of the same compound?
A: The osmotic coefficient was 0.9405 ± 0.0023.

Q: And the osmotic coefficient (m1 = 0.0416)?
A: Its osmotic coefficient is 0.9262 ± 0.0029.

Q: And the osmotic coefficient (m1 = 0.0612)?
A: Its osmotic coefficient is 0.9103 ± 0.0035.

Q: And the osmotic coefficient (m1 = 0.0821)?
A: Its osmotic coefficient is 0.9008 ± 0.0038.

Q: And the osmotic coefficient (m1 = 0.109)?
A: Its osmotic coefficient is 0.8865 ± 0.0044.

Q: What about the osmotic coefficient (m1 = 0.1518) of the same compound?
A: Its osmotic coefficient is 0.8725 ± 0.0049.

Q: What about the osmotic coefficient (m1 = 0.1962) of the same compound?
A: The osmotic coefficient was 0.8661 ± 0.0052.

Q: And the osmotic coefficient (m1 = 0.242)?
A: The osmotic coefficient was 0.8654 ± 0.0052.

Q: What about the osmotic coefficient (m1 = 0.2834) of the same compound?
A: The osmotic coefficient was 0.863 ± 0.0053.

Q: And the osmotic coefficient (m1 = 0.3192)?
A: Its osmotic coefficient is 0.8594 ± 0.0054.

Q: And the osmotic coefficient (m1 = 0.3741)?
A: Its osmotic coefficient is 0.8633 ± 0.0053.

Q: What about the osmotic coefficient (m1 = 0.4453) of the same compound?
A: Its osmotic coefficient is 0.8672 ± 0.0051.

Q: What about the osmotic coefficient (m1 = 0.5047) of the same compound?
A: The osmotic coefficient was 0.8715 ± 0.005.

Q: What about the osmotic coefficient (m1 = 0.5755) of the same compound?
A: Its osmotic coefficient is 0.8812 ± 0.0046.

Q: For `CC(C)C[C@H](N)C(=O)[O-].CCCCn1cc[n+](C)c1` [1-butyl-3-methylimidazolium L-leucinate] + O, which osmotic coefficient (m1 = 0) is on record?
A: The osmotic coefficient was 1 ± 0.0005.

Q: What about the osmotic coefficient (m1 = 0.0117) of the same compound?
A: Its osmotic coefficient is 0.9528 ± 0.0019.

Q: And the osmotic coefficient (m1 = 0.0184)?
A: Its osmotic coefficient is 0.9362 ± 0.0025.

Q: And the osmotic coefficient (m1 = 0.0387)?
A: Its osmotic coefficient is 0.9254 ± 0.0029.

Q: What about the osmotic coefficient (m1 = 0.0649) of the same compound?
A: The osmotic coefficient was 0.9104 ± 0.0035.

Q: What about the osmotic coefficient (m1 = 0.0795) of the same compound?
A: The osmotic coefficient was 0.9093 ± 0.0035.

Q: And the osmotic coefficient (m1 = 0.1123)?
A: The osmotic coefficient was 0.9025 ± 0.0038.

Q: What about the osmotic coefficient (m1 = 0.1532) of the same compound?
A: The osmotic coefficient was 0.8977 ± 0.004.

Q: What about the osmotic coefficient (m1 = 0.1914) of the same compound?
A: The osmotic coefficient was 0.8982 ± 0.0039.

Q: And the osmotic coefficient (m1 = 0.2319)?
A: The osmotic coefficient was 0.9005 ± 0.0039.

Q: What about the osmotic coefficient (m1 = 0.2687) of the same compound?
A: Its osmotic coefficient is 0.9029 ± 0.0038.

Q: And the osmotic coefficient (m1 = 0.3111)?
A: Its osmotic coefficient is 0.9101 ± 0.0035.

Q: What about the osmotic coefficient (m1 = 0.3711) of the same compound?
A: The osmotic coefficient was 0.9187 ± 0.0031.

Q: And the osmotic coefficient (m1 = 0.4373)?
A: Its osmotic coefficient is 0.9255 ± 0.0029.

Q: And the osmotic coefficient (m1 = 0.4915)?
A: Its osmotic coefficient is 0.9328 ± 0.0026.

Q: And the osmotic coefficient (m1 = 0.5503)?
A: Its osmotic coefficient is 0.9423 ± 0.0022.

Q: What does the source list for `CCCCn1cc[n+](C)c1.NCC(=O)[O-]` [1-butyl-3-methylimidazolium glycinate] + O?
A: osmotic coefficient (m1 = 0): 1 ± 0.004; osmotic coefficient (m1 = 0.0179): 0.941 ± 0.004; osmotic coefficient (m1 = 0.0266): 0.9408 ± 0.004; osmotic coefficient (m1 = 0.0509): 0.9167 ± 0.004; osmotic coefficient (m1 = 0.0737): 0.9076 ± 0.004; osmotic coefficient (m1 = 0.0978): 0.8916 ± 0.004; osmotic coefficient (m1 = 0.1314): 0.8739 ± 0.004; osmotic coefficient (m1 = 0.1811): 0.8658 ± 0.004; osmotic coefficient (m1 = 0.2166): 0.853 ± 0.004; osmotic coefficient (m1 = 0.263): 0.8465 ± 0.004; osmotic coefficient (m1 = 0.3181): 0.8432 ± 0.004; osmotic coefficient (m1 = 0.3693): 0.8407 ± 0.004; osmotic coefficient (m1 = 0.4305): 0.8405 ± 0.004; osmotic coefficient (m1 = 0.5055): 0.8474 ± 0.004; osmotic coefficient (m1 = 0.5791): 0.8523 ± 0.004; osmotic coefficient (m1 = 0.6439): 0.8526 ± 0.004

Q: What does the source list for `CC(C)[C@H](N)C(=O)[O-].CCCCn1cc[n+](C)c1` [1-butyl-3-methylimidazolium L-valinate] + O?
A: osmotic coefficient (m1 = 0): 1 ± 0.0004; osmotic coefficient (m1 = 0.013): 0.9595 ± 0.0016; osmotic coefficient (m1 = 0.0202): 0.9384 ± 0.0024; osmotic coefficient (m1 = 0.0421): 0.923 ± 0.003; osmotic coefficient (m1 = 0.0582): 0.9121 ± 0.0034; osmotic coefficient (m1 = 0.0723): 0.9019 ± 0.0038; osmotic coefficient (m1 = 0.1086): 0.8899 ± 0.0043; osmotic coefficient (m1 = 0.1458): 0.8851 ± 0.0045; osmotic coefficient (m1 = 0.1932): 0.8794 ± 0.0047; osmotic coefficient (m1 = 0.2434): 0.8759 ± 0.0048; osmotic coefficient (m1 = 0.2848): 0.879 ± 0.0047; osmotic coefficient (m1 = 0.3283): 0.8828 ± 0.0045; osmotic coefficient (m1 = 0.4013): 0.8908 ± 0.0042; osmotic coefficient (m1 = 0.4421): 0.8986 ± 0.0039; osmotic coefficient (m1 = 0.5035): 0.9098 ± 0.0035; osmotic coefficient (m1 = 0.576): 0.9279 ± 0.0028

— the NIST ThermoML archive (doi:10.1021/je500772z)
